We go through three compounds from US20080267882A1, “Imaging compounds, methods of making imaging compounds, methods of imaging, therapeutic compounds, methods of making therapeutic compounds, and methods of therapy” (Stanford University, priority 2007, published 2008).

This test concerns the target T1, integrin αvβ3 (Homo sapiens, UniProt P05106+P06756).
T1 construct: evaluated using U87MG cells (integrin αvβ3-positive); endogenous in cells; host or cells: U87MG human glioblastoma cells (ATCC)
In words: competitive cell binding assay using ^125I-echistatin on U87MG cells. The following applies: n=3, read-out: IC50 (inhibition of ^125I-echistatin binding to U87MG cells). The method, then: Experiments were performed on U87MG human glioblastoma cells with triplicate samples as previously reported.
In vitro integrin αvβ3-binding affinities and specificities of RGD4, PRGD4 and FPRGD4 were assessed via displacement cell binding assays using ^125I-echistatin as the integrin αvβ3-specific radioligand. Experiments were performed on U87MG human glioblastoma cells by the method previously described (J Nucl Med. 2005;46:1707-1718 J Nucl Med. 2006;47:1172-1180, which is incorporated herein by reference for the corresponding discussion). […] Experiments were performed with triplicate samples.
Experiments were performed with triplicate samples.
In vitro integrin-binding affinity and specificity of RGD multimers and DOTA-RGD multimers were assessed via competitive cell binding assays using ^125I-echistatin as the integrin αvβ3-specific radioligand (J Nucl Med. 2005;46:1707-1718, which is incorporated herein by reference for the corresponding discussion). […] Experiments were performed with triplicate samples.

Like-named read-outs stand apart in the source and are kept apart here.

`N=C(N)NCCC[C@@H]1NC(=O)[C@H](CCCCNC(=O)CC[C@H](NC(=O)CC[C@H](NC(=O)COCCOCCOCCN)C(=O)N[C@@H](CCC(=O)NCCCC[C@@H]2NC(=O)[C@@H](Cc3ccc(O)cc3)NC(=O)[C@H](CC(=O)O)NC(=O)CNC(=O)[C@H](CCCNC(=N)N)NC2=O)C(=O)NCCCC[C@@H]2NC(=O)[C@@H](Cc3ccc(O)cc3)NC(=O)[C@H](CC(=O)O)NC(=O)CNC(=O)[C@H](CCCNC(=N)N)NC2=O)C(=O)NCCCC[C@@H]2NC(=O)[C@@H](Cc3ccc(O)cc3)NC(=O)[C@H](CC(=O)O)NC(=O)CNC(=O)[C@H](CCCNC(=N)N)NC2=O)NC(=O)[C@@H](Cc2ccc(O)cc2)NC(=O)[C@H](CC(=O)O)NC(=O)CNC1=O` [PRGD4, NH2-mini-PEG-CO-E{E[c(RGDyK)]2}2]: the IC50 (Example 2) is 46.5 ± 5.3 nM. As to `N=C(N)NCCC[C@@H]1NC(=O)[C@H](CCCCNC(=O)CC[C@H](NC(=O)CC[C@H](NC(=O)CC[C@H](NC(=O)CN2CCN(CC(=O)O)CCN(CC(=O)O)CCN(CC(=O)O)CC2)C(=O)N[C@@H](CCC(=O)N[C@@H](CCC(=O)NCCCC[C@@H]2NC(=O)[C@@H](Cc3ccc(O)cc3)NC(=O)[C@H](CC(=O)O)NC(=O)CNC(=O)[C@H](CCCNC(=N)N)NC2=O)C(=O)NCCCC[C@@H]2NC(=O)[C@@H](Cc3ccc(O)cc3)NC(=O)[C@H](CC(=O)O)NC(=O)CNC(=O)[C@H](CCCNC(=N)N)NC2=O)C(=O)N[C@@H](CCC(=O)NCCCC[C@@H]2NC(=O)[C@@H](Cc3ccc(O)cc3)NC(=O)[C@H](CC(=O)O)NC(=O)CNC(=O)[C@H](CCCNC(=N)N)NC2=O)C(=O)NCCCC[C@@H]2NC(=O)[C@@H](Cc3ccc(O)cc3)NC(=O)[C@H](CC(=O)O)NC(=O)CNC(=O)[C@H](CCCNC(=N)N)NC2=O)C(=O)N[C@@H](CCC(=O)NCCCC[C@@H]2NC(=O)[C@@H](Cc3ccc(O)cc3)NC(=O)[C@H](CC(=O)O)NC(=O)CNC(=O)[C@H](CCCNC(=N)N)NC2=O)C(=O)NCCCC[C@@H]2NC(=O)[C@@H](Cc3ccc(O)cc3)NC(=O)[C@H](CC(=O)O)NC(=O)CNC(=O)[C@H](CCCNC(=N)N)NC2=O)C(=O)NCCCC[C@@H]2NC(=O)[C@@H](Cc3ccc(O)cc3)NC(=O)[C@H](CC(=O)O)NC(=O)CNC(=O)[C@H](CCCNC(=N)N)NC2=O)NC(=O)[C@@H](Cc2ccc(O)cc2)NC(=O)[C@H](CC(=O)O)NC(=O)CNC1=O` [DOTA-RGD octamer], the IC50 (Example 4) came out at 11 nM.

As for `N=C(N)NCCC[C@@H]1NC(=O)[C@H](CCCCNC(=O)CC[C@H](NC(=O)CC[C@H](NC(=O)COCCOCCOCCNC(=O)c2ccc(F)cc2)C(=O)N[C@@H](CCC(=O)NCCCC[C@@H]2NC(=O)[C@@H](Cc3ccc(O)cc3)NC(=O)[C@H](CC(=O)O)NC(=O)CNC(=O)[C@H](CCCNC(=N)N)NC2=O)C(=O)NCCCC[C@@H]2NC(=O)[C@@H](Cc3ccc(O)cc3)NC(=O)[C@H](CC(=O)O)NC(=O)CNC(=O)[C@H](CCCNC(=N)N)NC2=O)C(=O)NCCCC[C@@H]2NC(=O)[C@@H](Cc3ccc(O)cc3)NC(=O)[C@H](CC(=O)O)NC(=O)CNC(=O)[C@H](CCCNC(=N)N)NC2=O)NC(=O)[C@@H](Cc2ccc(O)cc2)NC(=O)[C@H](CC(=O)O)NC(=O)CNC1=O` [FPRGD4, FB-NH-mini-PEG-CO-E{E[c(RGDyK)]2}2], the IC50 (Example 2) stood at 37.7 ± 7 nM.
